The text below walks through data of patent US10251909B2 (Board of Regents, the University of Texas System, priority 2007, dated 2019).

The conditions of data set [1]: cited from earlier work.
For data set [2] the following is noted: thirty subjects with hypomagnesemia on thiazide alone; cited from earlier work.
The conditions of data set [3]: both groups, before potassium supplementation; cited from earlier work.
For data set [4] the following is noted: cited from earlier work. This is another data set of the same source.
The nature of data set [5]: Blood pressure during 5 months of KMgCitrate or potassium chloride with hydrochlorothiazide, 21 normal subjects (Example 1). Type of data set: in vivo, Human. The settings on record: for fall in diastolic blood pressure (supine) / fall in systolic blood pressure (supine): 42 mEq K per day with hydrochlorothiazide 50 mg/day, monthly for 5 months versus baseline, normal subjects; for effect on blood pressure: normal subjects given hydrochlorothiazide concurrently for 5 months, as early as one month and as long as 5 months. From the text: FIG. 2 graphically illustrates the effect of KMgCitrate (K4MgCit2) on blood pressure in 21 normal subjects. Changes in systolic and diastolic blood pressures from baseline (before treatment) occurring during 5 months of treatment with potassium chloride (KCl) or KMgCitrate with hydrochlorothiazide are shown individually. * p<0.05 from time zero, ** p<0.01.
In the recently published study by Odvina et al. (Am J Therap 13: 101-108, 2006) that examined the value of KMgCitrate in the prevention of thiazide-induced hypomagnesemia, the unpublished data on blood pressure were extracted. Twenty-one normal subjects participated in the trial. All were started on hydrochorothiazide 50 mg/day. Ten subjects took simultaneously KMgCitrate at a dose of 42 mEq K and […] per day, while 11 subjects received potassium chloride (42 mEq/day). Supine blood pressures were taken before and each month for 5 months. FIG. 3 compares the systolic and diastolic blood pressures between the two groups.

For data set [6] the following is noted: in vivo; cited from earlier work.
For data set [7] the following is noted: cited from earlier work. The source holds these as a separate data set.
The conditions of data set [8]: cited from earlier work. This is another data set of the same source.
For data set [9] the following is noted: Odvina, 42 mEq K qd; cited from earlier work.
A short description of data set [10]: Insulin responsiveness by hyperinsulinemic euglycemic pump procedure, two subjects with uric acid stones (Example 2). Type of data set: in vivo, Human. The settings on record: 49 mEq K, 24.5 mEq Mg per day for 4 weeks. The protocol: In two subjects with uric acid stones, insulin responsiveness was determined before and after KMgCitrate treatment (49 mEq K, 24.5 mEq Mg per day for 4 weeks) by a hyperinsulinemic euglycemic pump procedure. During intravenous infusion of insulin, glucose was infused at a rate sufficient to maintain a constant glucose concentration. Insulin responsiveness was determined from the glucose disposal rate.

Data set [11] is described as follows: Tolerability of KMgCitrate. It counts as in vivo. The settings on record: usual dosage about 40 mEq potassium, 20 mEq magnesium, 60 mEq citrate.
Setting [12] is: during therapy versus control phase, constant metabolic diet.
[13] abbreviates: during therapy, constant metabolic diet.
Setting [14] is: 49 mEq K, 24.5 mEq Mg/day for 3 weeks while continuing hydrochlorothiazide 50 mg/day.

SMILES strings stand for the structures. Like-named read-outs stand apart in the source and are kept apart here.

Consider `NS(=O)(=O)c1cc2c(cc1Cl)NCNS2(=O)=O` [thiazide, hydrochlorothiazide], for which the “serum potassium concentration on thiazide alone” value in data set [1] (hydrochlorothiazide 50 mg/day for 3 weeks, normal subjects) is “decreased significantly to below the normal range in most subjects”; in data set [3] it was “decreased significantly”. For the same compound, in [2], the “serum magnesium concentration during thiazide alone versus before treatment” value is given as “significantly lower”.

Regarding `O=C([O-])CC(O)(CC(=O)[O-])C(=O)[O-].[K+].[K+].[K+]` [Potassium citrate, potassium citrate, reference compound], in [4] (setting [12]), the urinary citrate entry is “did not raise pH or citrate as much” and the “urinary pH” value is “did not raise pH or citrate as much”. Further, in data set [4] (setting [13]), the urinary magnesium excretion result was “did not augment”.

For `[Cl-].[K+]` [potassium chloride, reference compound], in data set [5], the “fall in diastolic blood pressure (supine)” value is “trend for systolic and diastolic blood pressures to decrease”; the “fall in systolic blood pressure (supine)” value was “trend for systolic and diastolic blood pressures to decrease”; the “effect on blood pressure” value is listed as “no statistically significant effect”. The urinary calcium result in data set [6] is “has no effect”.

Regarding `O=C([O-])CC(O)(CC(=O)[O-])C(=O)[O-].O=C([O-])CC(O)(CC(=O)[O-])C(=O)[O-].[K+].[K+].[K+].[K+].[Mg+2]` [KMgCitrate, tetrapotassium monomagnesium dicitrate], in [5], the “fall in diastolic blood pressure (supine)” value is “significant only in the KMgCitrate group”, the “fall in systolic blood pressure (supine)” value was “significant only in the KMgCitrate group” and the “effect on blood pressure” value is “significant reduction”. The “relative risk of treatment failure compared with placebo” value in [7] (42 mEq K, 21 mEq Mg/day for up to 3 years) is 0.16 (95% confidence interval of 0.05-0.46). Besides, the “patients in whom new calculi formed” value in [7] (42 mEq K, 21 mEq Mg/day for up to 3 years, placebo 63.6%) is recorded as 12.6%. Further, the stone formation rate result in data set [7] (randomized trial, patients with calcium oxalate nephrolithiasis) is reported as “dramatically reduced”. Further, in data set [1] (setting [14]), the serum potassium concentration result is on record as “increased significantly” and the “serum potassium determinations reaching normal limits” value was 81.7%. For the same compound, in data set [1] (Ruml, 49 mEq K qd), the “Increment in Urinary Magnesium” value is given as 38 mg/day and the “Increment in Urinary Potassium” value is 33 mEq/day. In data set [8] (single oral load (KMgCitrate 49 mEq potassium, 24.5 mEq magnesium, 73.5 mEq citrate), timed urine 24 hours, 15 normal volunteers), the “peak excretion rate of urinary potassium” value was “comparable to that of potassium citrate and potassium chloride”. In addition, the “peak excretion rate and peak time of urinary magnesium” value in [8] (single oral load, 24.5-25 mEq magnesium, 15 normal volunteers) is “comparable between KMgCitrate and magnesium citrate”. Besides, in data set [8] (single oral load, 24.5-25 mEq magnesium, potassium citrate as control), the “cumulative increment in urinary magnesium” value is “equivalent between KMgCitrate and magnesium citrate”. In addition, in data set [8] (single oral load, 49-50 mEq potassium, 15 normal volunteers), the “peak time (time to reach peak excretion rate) of urinary potassium” value was “about 4 hours”. In data set [9], the “Increment in Urinary Magnesium” value was 57 to 63 mg/day and the “Increment in Urinary Potassium” value was 30–50 mEq/day. Further, the “glucose disposal rate after treatment, second patient” value in [10] (2.2 mg/m^2/min before treatment) is on record as 2.8 mg/m^2/min. For the same compound, the “glucose disposal rate after treatment, first patient” value in [10] (3.2 mg/m^2/min before treatment) worked out at 4.3 mg/m^2/min. Further, the insulin responsiveness entry in data set [10] (hyperinsulinemic euglycemic pump) is “improved insulin responsiveness”. Further, in data set [4] (Pak, 49 mEq K qd), the “Increment in Urinary Magnesium” value is 44 mg/day and the “Increment in Urinary Potassium” value was 51 mEq/day. Besides, the alkali load entry in [4] (at the same dose of potassium, versus potassium citrate) is reported as “greater alkali load than potassium citrate”. Further, in data set [4] (setting [12]), the “urinary pH” value is reported as “rose from the control phase” and the urinary potassium result is “rose from the control phase”. For the same compound, in data set [4] (setting [13]), the “inhibitor activity of brushite” value was “increased”, the “inhibitor activity of calcium oxalate” value was “increased”, the “urinary saturation of calcium oxalate (activity product)” value was “reduced” and the “urinary saturation of uric acid (content of undissociated uric acid)” value is “reduced”. Also, in [11], the “tolerability / side effect profile” value is “well tolerated, with a low side effect profile”.
